# In US7109244B2, “Compositions and methods comprising long-chain, straight-chain 2-amino-3-hydroxyalkanes” (priority 1997, dated 2006):
# How the values were obtained:
# Assay type in all cases: cell-based
# [1] = test system: L1210 murine lymphocytic leukemia cells; test: L1210 morphological change (pointed cells); conditions: for % Pointed cells: percent of the living cells; for % Pointed Cells 1st: 27 h
# Protocol: Referring to FIG. 1, in the L1210 assay some of the cells changed from being spherical (FIG. 1A) to ovoid with long points approximately […] apart (FIG. 1B). Several other forms have also been observed in assays of these extracts, including cells with points not […] apart (FIG. 1C), cells with more than two points (FIG. 1D), cells with a bulge (FIG. 1E) and cells with a bulge replacing one of the points (FIG. 1F). However, the form with two sharp, opposing points was by far the predominant and characteristic one observed. This type of morphological change had not previously been observed during the screening of over 1000 marine extracts.
# As discussed above, the spisulosines caused a distinct morphological change in L1210 leukemia cells, in addition to cytotoxicity. This bioactivity, which was recorded as the percentage of living cells in which altered morphology was observed, could be observed sometimes as early as 13 h after the start of the assay and reached a maximum at 50–60 h, after which it decreased. […] The morphological effect was usually measured 30–35 h after the start of the assay and again about 24 h later, while the cytotoxicity was determined when the number of cells in the controls reached approximately 8000, usually in 3 days after the assay was begun. It should be noted that the pointed cells were live cells and that they were counted as such for the cytotoxicity reading. Also, assays in which 100% cytotoxicity was recorded may still have contained live cells (<0.5%) which may or may not have been pointed. All morphologically-changed cells were counted in the pointed cell percentage.
# Morphologically-changed cells (FIGS. 1A–1F) were counted as living cells when determining the percent inhibition of growth. Morphological changes were assessed throughout the assay period. The percentage of pointed cells was determined by counting the number of altered cells in approximately 60 living cells. This percentage varied with the length of time the assay had been running. It generally reached its maximum about 50 hours after the start of the assay, but pointed cells could be observed as early as 13 hours after the start of the assay and could usually still be seen when the percent growth inhibition was measured. The percentages of pointed cells were often counted both after about 35 and after 55 hours. The time that this measurement was made is indicated with the data.
# HT-29 = test: in vitro tumor cell line activity, HT-29
# Vero cells [2] = test: Vero cell morphology (Example A); conditions: 0.5 mM, 4 hours
# Protocol: Vero cells were grown in Dulbecco's modified Eagle medium supplemented with 10% foetal bovine serum. Spisulosine or LPA were added to these cultures to a concentration of […] and 50–10 mM respectively, from 4 to 24 hours. Cells were counted with the […] haemocytometer procedure using a solution of 0.4% Trypan blue in Hanks buffered Saline (Celis and Celis, “General Procedures for Tissue Culture in Cell Biology, a Laboratory Handbook” Academic Press Inc, Vol 1, pp. 5–17.)
# Vero cells were incubated with spisulosine 285 (0.5 mM) for 4 hours. […] Panel c represents a higher magnification of the culture to which spisulosine was added.
# Vero cells [3] = test: microfilament and microtubule staining in Vero cells (Example B); conditions: 0.5 mM, 4 hours
# Protocol: In order to identify the organization of the microfilament and microtubule organization in cells treated with spisulosine 285, cells were stained with phalloidin to detect actin polymers, and an antitubulin antibody to detect tubulin.
# Vero cells were incubated in the presence (panel b, d) or absence (a, c) of 0.5 mM spisulosine 285 for 4 hours. Cells grown in coverslips were fixed with methanol at −20° C. (for tubulin antibody) or with 4% paraformaldehyde in phosphate buffered saline PBS (w/v) for phalloidin incubation. In the second case the cells were washed with 0.2% Triton X100 in PBS. The coverslips were washed with PBS and incubated for 1 hour at room temperature with the tubulin antibody (diluted 1/1000 in PBS) or with phalloidin (1 mg/ml). After washing with PBS the coverslips incubated with the tubulin antibody were overlaid with fluorescein or Texas red-labelled goat antimouse antibodies (diluted 1:50 in PBS). The coverslips were mounted with Mowiol and stored in the dark at 4° C. until observation.
# Vero cells [4] = test: effect of LPA on the action of spisulosine 285 in Vero cells (Example D); conditions: spisulosine alone, 24 hours
# Text: LPA is known to increase the level of stress fibers in cells by activation of the Rho protein. The effect of LPA on cells treated with spisulosine 285, and untreated cells was examined. […]
# RAMOS = test: expanded in vitro screen, RAMOS; conditions: Homo sapiens, Burkitts
# Protocol: (§1) An expanded in vitro screen was performed of spisulosine 285 against a series of different cell lines.
# SW684 = test: expanded in vitro screen, SW684; conditions: Homo sapiens; SW684, Fibrosarcoma
# Protocol: as §1
# ARH77 = test: expanded in vitro screen, ARH77; conditions: Homo sapiens, ARH-77; ARH77, Leukemia
# Protocol: as §1
smiles,measurement,setting,value
"CCCCCCCCCCCCCCC[C@@H](O)[C@H](C)N [Spisulosine 285, (2S,3R)-2-Amino-3-octadecanol]",L1210 morphological alteration / pointed cell activity (in words),[1],pointed cell activity
same,% Pointed cells,[1]; 0.01 μg/ml,1%
same,% Pointed cells,[1]; 0.05 μg/ml,71%
same,% Pointed Cells 1st,[1]; 0.1 μg/ml,33%
same,% Pointed cells,[1]; 0.1 μg/ml,62%
same,% Pointed Cells 1st,[1]; 0.5 μg/ml,56%
same,% Pointed cells,[1]; 0.5 μg/ml,97%
same,% Pointed Cells 1st,[1]; 1 μg/ml,64%
same,% Pointed Cells 1st,[1]; 5 μg/ml,ad
same,active against tumor cell line in vitro (concentration),HT-29,0.05 mg/mL
same,cell shape,Vero cells [2],"altered from polygonal (untreated cells, panel a) to a fusiform shape"
same,actin (phalloidin stain),Vero cells [3],dramatic decrease in actin
same,microtubule network (tubulin antibody),Vero cells [3],remains in a polymerised form
same,cell morphology,Vero cells [4],appearance of rounded cells
same,IC50,RAMOS,0.0482 nM
same,IC50,SW684,1.05 nM
same,IC50,ARH77,0.0136 nM
